Assay results taken from patent US11053204B2, “Pyrimidinyloxy benzene derivatives as herbicides” (FMC Corporation, priority 2015, dated 2021).

Assays:
Type in all cases: in vivo
[1] = tested on: Italian ryegrass (Lolium multiflorum); assay: Test A postemergence, visual injury rating; conditions: 0 is no effect, 100 is complete control
How it was run: (§1)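 Visual 0–100 rating (100 = complete control) taken about 10 d post-treatment relative to untreated checks. Preemergence: directed soil spray on sown loam/sand pots. Postemergence: seedlings 2–10 cm, 1–2 leaf. Non-phytotoxic solvent formulation with surfactant.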

[2] = tested on: barnyardgrass (Echinochloa crus-galli); assay: Test A postemergence, visual injury rating; conditions: 0 is no effect, 100 is complete control
How it was run: as §1

[3] = tested on: blackgrass (Alopecurus myosuroides); assay: Test A postemergence, visual injury rating; conditions: 0 is no effect, 100 is complete control
How it was run: as §1

corn (Zea mays) = assay: Test A postemergence, visual injury rating; conditions: 0 is no effect, 100 is complete control
How it was run: as §1

[4] = tested on: galium (catchweed bedstraw, Galium aparine); assay: Test A postemergence, visual injury rating; conditions: 0 is no effect, 100 is complete control
How it was run: as §1

[5] = tested on: giant foxtail (Setaria faberii); assay: Test A postemergence, visual injury rating; conditions: 0 is no effect, 100 is complete control
How it was run: as §1

kochia (Kochia scoparia) = assay: Test A postemergence, visual injury rating; conditions: 0 is no effect, 100 is complete control
How it was run: as §1

[6] = tested on: pigweed (Amaranthus retroflexus); assay: Test A postemergence, visual injury rating; conditions: 0 is no effect, 100 is complete control
How it was run: as §1

[7] = tested on: ragweed (common ragweed, Ambrosia elatior); assay: Test A postemergence, visual injury rating; conditions: 0 is no effect, 100 is complete control
How it was run: as §1

[8] = tested on: wheat (Triticum aestivum); assay: Test A postemergence, visual injury rating; conditions: 0 is no effect, 100 is complete control
How it was run: as §1

[9] = tested on: lambsquarters (Chenopodium album); assay: Test C preemergence, plant response rating; conditions: Preemergence
How it was run: (§2)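 Pre-emergence: seeds sown in loam soil–sand blend or silt loam and sprayed with test chemicals in a non-phytotoxic solvent mixture with surfactant. Post-emergence: plants 2 to 18 cm (1- to 4-leaf stage) in peat-based potting medium, same formulation. Greenhouse 13 to 15 d; visual rating 0 (no effect) to 100 (complete control) versus controls.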

[10] = tested on: morningglory (Ipomoea coccinea); assay: Test C preemergence, plant response rating; conditions: Preemergence
How it was run: as §2

[11] = tested on: nutsedge, yellow (yellow nutsedge, Cyperus esculentus); assay: Test C preemergence, plant response rating; conditions: Preemergence
How it was run: as §2

[12] = tested on: velvetleaf (Abutilon theophrasti); assay: Test C preemergence, plant response rating; conditions: Preemergence
How it was run: as §2

[13] = tested on: waterhemp (common waterhemp, Amaranthus rudis); assay: Test C preemergence, plant response rating; conditions: Preemergence
How it was run: as §2

[14] = tested on: wheat (winter wheat, Triticum aestivum); assay: Test C preemergence, plant response rating; conditions: Preemergence
How it was run: as §2

[15] = tested on: barnyardgrass (Echinochloa crus-galli); assay: Test C postemergence, plant response rating; conditions: for Plant response rating, Barnyardgrass: scale 0 to 100; for Barnyardgrass plant response rating: scale 0 to 100 (0 no effect, 100 complete control)
How it was run: as §2

[16] = tested on: crabgrass, large (large crabgrass, Digitaria sanguinalis); assay: Test C postemergence, plant response rating; conditions: for Plant response rating, Crabgrass, Large: scale 0 to 100; for Crabgrass, Large plant response rating: scale 0 to 100 (0 no effect, 100 complete control)
How it was run: as §2

[17] = tested on: ryegrass, Italian (Italian ryegrass, Lolium multiflorum); assay: Test C postemergence, plant response rating; conditions: for Plant response rating, Ryegrass, Italian: scale 0 to 100; for Ryegrass, Italian plant response rating: scale 0 to 100 (0 no effect, 100 complete control)
How it was run: as §2

`O=C(OCCC(F)(F)F)c1c(Br)cccc1Oc1ncc(Br)cn1` [Compound 33] was tested, and the “Ryegrass, Italian plant response rating (0 to 100 scale)” value ([1]; 125 g ai/ha) was 30, the “Ryegrass, Italian plant response rating (0 to 100 scale)” value ([1]; 500 g ai/ha) was 80 and the “Barnyardgrass plant response rating (0 to 100 scale)” value ([2]; 125 g ai/ha) was 80. The “Barnyardgrass plant response rating (0 to 100 scale)” value ([2]; 500 g ai/ha) was 100, the “Blackgrass plant response rating (0 to 100 scale)” value ([3]; 125 g ai/ha) was 60 and the “Blackgrass plant response rating (0 to 100 scale)” value ([3]; 500 g ai/ha) was 90. For the same compound, the “Corn plant response rating (0 to 100 scale)” value (corn (Zea mays); 125 g ai/ha) was 30, the “Corn plant response rating (0 to 100 scale)” value (corn (Zea mays); 500 g ai/ha) was 90 and the “Galium plant response rating (0 to 100 scale)” value ([4]; 125 g ai/ha) was 100. For the same compound, the “Galium plant response rating (0 to 100 scale)” value ([4]; 500 g ai/ha) was 100, the “Foxtail, Giant plant response rating (0 to 100 scale)” value ([5]; 125 g ai/ha) was 100 and the “Foxtail, Giant plant response rating (0 to 100 scale)” value ([5]; 500 g ai/ha) was 100. For the same compound, the “Kochia plant response rating (0 to 100 scale)” value (kochia (Kochia scoparia); 125 g ai/ha) was 100, the “Kochia plant response rating (0 to 100 scale)” value (kochia (Kochia scoparia); 500 g ai/ha) was 100 and the “Pigweed plant response rating (0 to 100 scale)” value ([6]; 125 g ai/ha) was 100. The “Pigweed plant response rating (0 to 100 scale)” value ([6]; 500 g ai/ha) was 100, the “Ragweed plant response rating (0 to 100 scale)” value ([7]; 125 g ai/ha) was 30 and the “Ragweed plant response rating (0 to 100 scale)” value ([7]; 500 g ai/ha) was 40. The “Wheat plant response rating (0 to 100 scale)” value ([8]; 125 g ai/ha) was 20, the “Wheat plant response rating (0 to 100 scale)” value ([8]; 500 g ai/ha) was 60 and the “Plant response rating, Lambsquarters” value ([9]; 125 g ai/ha, scale of 0 to 100) was 85. The “Plant response rating, Lambsquarters” value ([9]; 16 g ai/ha, scale 0 to 100) was 25, the “Plant response rating, Lambsquarters” value ([9]; 31 g ai/ha, scale 0 to 100) was 60 and the “Plant response rating, Lambsquarters” value ([9]; 62 g ai/ha, scale 0 to 100) was 80. For the same compound, the “Plant response rating, Morningglory” value ([10]; 125 g ai/ha, scale of 0 to 100) was 40, the “Plant response rating, Morningglory” value ([10]; 16 g ai/ha, scale 0 to 100) was 0 and the “Plant response rating, Morningglory” value ([10]; 31 g ai/ha, scale 0 to 100) was 0. For the same compound, the “Plant response rating, Morningglory” value ([10]; 62 g ai/ha, scale 0 to 100) was 25, the “Plant response rating, Nutsedge, Yellow” value ([11]; 125 g ai/ha, scale of 0 to 100) was 5 and the “Plant response rating, Nutsedge, Yellow” value ([11]; 16 g ai/ha, scale 0 to 100) was 0. For the same compound, the “Plant response rating, Nutsedge, Yellow” value ([11]; 31 g ai/ha, scale 0 to 100) was 0, the “Plant response rating, Nutsedge, Yellow” value ([11]; 62 g ai/ha, scale 0 to 100) was 5 and the “Plant response rating, Velvetleaf” value ([12]; 125 g ai/ha, scale of 0 to 100) was 100. For the same compound, the “Plant response rating, Velvetleaf” value ([12]; 16 g ai/ha, scale 0 to 100) was 5, the “Plant response rating, Velvetleaf” value ([12]; 31 g ai/ha, scale 0 to 100) was 30 and the “Plant response rating, Velvetleaf” value ([12]; 62 g ai/ha, scale 0 to 100) was 55. For the same compound, the “Plant response rating, Waterhemp” value ([13]; 125 g ai/ha, scale of 0 to 100) was 100, the “Plant response rating, Waterhemp” value ([13]; 16 g ai/ha, scale 0 to 100) was 100 and the “Plant response rating, Waterhemp” value ([13]; 31 g ai/ha, scale 0 to 100) was 100. For the same compound, the “Plant response rating, Waterhemp” value ([13]; 62 g ai/ha, scale 0 to 100) was 100, the “Plant response rating, Wheat” value ([14]; 125 g ai/ha, scale of 0 to 100) was 5 and the “Plant response rating, Wheat” value ([14]; 16 g ai/ha, scale 0 to 100) was 0. The “Plant response rating, Wheat” value ([14]; 31 g ai/ha, scale 0 to 100) was 0, the “Plant response rating, Wheat” value ([14]; 62 g ai/ha, scale 0 to 100) was 0 and the “Plant response rating, Barnyardgrass” value ([15]; 16 g ai/ha) was 5. The “Plant response rating, Barnyardgrass” value ([15]; 31 g ai/ha) was 5, the “Barnyardgrass plant response rating” value ([15]; 62 g ai/ha) was 10 and the “Barnyardgrass plant response rating” value ([15]; 125 g ai/ha) was 25. The “Plant response rating, Crabgrass, Large” value ([16]; 16 g ai/ha) was 5, the “Plant response rating, Crabgrass, Large” value ([16]; 31 g ai/ha) was 5 and the “Crabgrass, Large plant response rating” value ([16]; 62 g ai/ha) was 10. The “Crabgrass, Large plant response rating” value ([16]; 125 g ai/ha) was 15, the “Plant response rating, Ryegrass, Italian” value ([17]; 16 g ai/ha) was 0 and the “Plant response rating, Ryegrass, Italian” value ([17]; 31 g ai/ha) was 5. The “Ryegrass, Italian plant response rating” value ([17]; 62 g ai/ha) was 5 and the “Ryegrass, Italian plant response rating” value ([17]; 125 g ai/ha) was 30.
